The supplement of paper PMC10307832

What was measured:
Test in all cases: relative viability (nuclei count vs DMSO), 5 days (fraction); higher = more cells survive
Obatoclax + Trametinib = compound: COC1=CC(c2cc3ccccc3[nH]2)=N/C1=C\c1[nH]c(C)cc1C [Obatoclax] + CC(=O)Nc1cccc(-n2c(=O)n(C3CC3)c(=O)c3c(Nc4ccc(I)cc4F)n(C)c(=O)c(C)c32)c1 [Trametinib] (partner 0.02 µM)
How it was run: (§1)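 Dosing by pin tool came one day after lung cancer cell lines were seeded in 1536-well plates, using either one drug or a fixed anchor-drug dose plus five library-drug doses (not always all listed) in √10 steps. After 5 days, nuclei were counted on 4× images. Relative viability is treated-well nuclei count divided by vehicle-well nuclei count, and values are medians of duplicate plates.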

Bortezomib + Lapatinib = compound: CC(C)C[C@H](NC(=O)[C@H](Cc1ccccc1)NC(=O)c1cnccn1)B(O)O [Bortezomib] + CS(=O)(=O)CCNCc1ccc(-c2ccc3ncnc(Nc4ccc(OCc5cccc(F)c5)c(Cl)c4)c3c2)o1 [Lapatinib] (partner 2 µM)
How it was run: as §1

Obatoclax + Dasatinib = compound: COC1=CC(c2cc3ccccc3[nH]2)=N/C1=C\c1[nH]c(C)cc1C [Obatoclax] + Cc1nc(Nc2ncc(C(=O)Nc3c(C)cccc3Cl)s2)cc(N2CCN(CCO)CC2)n1 [Dasatinib] (partner 0.075 µM)
How it was run: as §1

Obatoclax + AZD7762 = compound: COC1=CC(c2cc3ccccc3[nH]2)=N/C1=C\c1[nH]c(C)cc1C [Obatoclax] + NC(=O)Nc1cc(-c2cccc(F)c2)sc1C(=O)N[C@H]1CCCNC1 [AZD7762] (partner 0.2 µM)
How it was run: as §1

| Cell Line | relative viability (Obatoclax + Trametinib; first compound 0.01 µM) | relative viability (Obatoclax + Trametinib; first compound 0.03162 µM) | relative viability (Obatoclax + Trametinib; first compound 0.1 µM) | relative viability (Obatoclax + Trametinib; first compound 0.3162 µM) | relative viability (Obatoclax + Trametinib; first compound 1 µM) | relative viability (Bortezomib + Lapatinib; first compound 0.0002 µM) | relative viability (Bortezomib + Lapatinib; first compound 0.000632 µM) | relative viability (Bortezomib + Lapatinib; first compound 0.002 µM) | relative viability (Bortezomib + Lapatinib; first compound 0.006325 µM) | relative viability (Bortezomib + Lapatinib; first compound 0.02 µM) | relative viability (Obatoclax + Dasatinib; first compound 0.01 µM) | relative viability (Obatoclax + Dasatinib; first compound 0.03162 µM) | relative viability (Obatoclax + Dasatinib; first compound 0.1 µM) | relative viability (Obatoclax + Dasatinib; first compound 0.3162 µM) | relative viability (Obatoclax + Dasatinib; first compound 1 µM) | relative viability (Obatoclax + AZD7762; first compound 0.01 µM) | relative viability (Obatoclax + AZD7762; first compound 0.03162 µM) | relative viability (Obatoclax + AZD7762; first compound 0.1 µM) | relative viability (Obatoclax + AZD7762; first compound 0.3162 µM) | relative viability (Obatoclax + AZD7762; first compound 1 µM) |
| --- | --- | --- | --- | --- | --- | --- | --- | --- | --- | --- | --- | --- | --- | --- | --- | --- | --- | --- | --- | --- |
| HCC-827 | 0.523 | 0.512 | 0.734 | 0.475 | 0.595 | 0.217 | 0.183 | 0.187 | 0.222 | 0.15 | 0.451 | 0.292 | 0.417 | 0.407 | 0.388 | 0.244 | 0.234 | 0.215 | 0.202 | 0.261 |
| HOP-62 | 0.406 | 0.318 | 0.389 | 0.388 | 0.408 | 0.953 | 1.01 | 1.04 | 0.283 | 0.0578 | 0.718 | 0.64 | 0.439 | 0.787 | 0.534 | 0.402 | 0.519 | 0.515 | 0.59 | 0.508 |
| IA-LM |  |  |  |  |  | 0.828 | 0.851 | 0.432 | 0.0336 | 0.0551 |  |  |  |  |  |  |  |  |  |  |
| LCLC-103H | 0.64 | 0.702 | 0.63 | 0.678 | 0.694 |  |  |  |  |  | 0.458 | 0.464 | 0.411 | 0.517 | 0.53 | 0.766 | 0.727 | 0.682 | 0.871 | 0.917 |
| NCI-H441 | 0.505 | 0.353 | 0.427 | 0.27 | 0.194 |  |  |  |  |  | 0.537 | 0.634 | 0.542 | 0.402 | 0.208 | 1.33 | 1.28 | 1.16 | 0.941 | 1.08 |
| NCI-H520 | 0.675 | 0.777 | 0.86 | 0.439 | 0.269 | 0.91 | 0.857 | 0.271 | 0.108 | 0.128 | 0.196 | 0.214 | 0.205 | 0.22 | 0.194 |  |  |  |  |  |
| NCI-H522 | 0.683 | 0.765 | 0.805 | 0.783 | 0.867 |  |  |  |  |  | 1.03 | 0.757 | 0.696 | 0.851 | 0.573 | 0.823 | 0.664 | 0.915 | 0.92 | 0.883 |
| NCI-H661 | 0.585 | 0.553 | 0.593 | 0.493 | 0.473 | 0.458 | 0.512 | 0.406 | 0.297 | 0.18 | 0.875 | 0.846 | 0.427 | 0.762 | 0.4 |  |  |  |  |  |
| NCI-H1299 |  |  |  |  |  | 0.959 | 0.93 | 0.933 | 0.463 | 0.16 |  |  |  |  |  |  |  |  |  |  |
| NCI-H1563 |  |  |  |  |  | 0.809 | 0.869 | 0.684 | 0.506 | 0.481 | 0.457 | 0.437 | 0.453 | 0.457 | 0.469 |  |  |  |  |  |
| NCI-H1623 |  |  |  |  |  |  |  |  |  |  | 0.548 | 0.502 | 0.499 | 0.572 | 0.52 |  |  |  |  |  |
| NCI-H1648 | 0.52 | 0.406 | 0.559 | 0.51 | 0.457 |  |  |  |  |  |  |  |  |  |  | 0.701 | 0.754 | 1 | 0.77 | 0.886 |
| NCI-H1650 | 0.763 | 0.724 | 0.652 | 0.36 | 0.303 | 0.279 | 0.482 | 0.154 | 0.17 | 0.181 | 0.304 | 0.329 | 0.396 | 0.271 | 0.179 |  |  |  |  |  |
| NCI-H1703 |  |  |  |  |  | 1.23 | 0.947 | 0.184 | 0.135 | 0.145 |  |  |  |  |  | 0.135 |  |  | 0.138 | 0.126 |
| NCI-H2009 | 0.32 | 0.313 | 0.252 | 0.304 | 0.192 | 0.583 | 0.812 | 0.968 | 0.0615 | 0.0663 | 0.297 | 0.367 | 0.252 | 0.208 | 0.197 |  |  |  |  |  |
| NCI-H2023 | 0.59 | 0.575 | 0.595 | 0.362 | 0.226 | 0.521 | 0.822 | 0.773 | 0.144 | 0.0649 | 0.518 | 0.548 | 0.53 | 0.412 | 0.194 |  |  |  |  |  |
| NCI-H2228 | 0.573 | 0.454 | 0.576 | 0.473 | 0.474 | 0.986 | 0.816 | 0.438 | 0.115 | 0.119 | 0.499 | 0.595 | 0.571 | 0.351 | 0.148 |  |  |  |  |  |
| NCI-H2342 | 0.859 | 0.849 | 0.907 | 0.788 | 0.861 |  |  |  |  |  | 0.365 | 0.303 | 0.347 | 0.285 | 0.302 | 0.614 | 0.392 | 0.51 | 0.363 | 0.389 |
| SK-LU-1 | 0.454 | 0.568 | 0.447 | 0.414 | 0.311 | 0.781 | 0.894 | 0.497 | 0.13 | 0.146 | 0.184 | 0.19 | 0.141 | 0.157 | 0.141 |  |  |  |  |  |
| SK-MES-1 | 0.635 | 0.572 | 0.713 | 0.554 | 0.319 | 0.487 | 0.45 | 0.506 | 0.423 | 0.214 | 0.356 | 0.48 | 0.394 | 0.362 | 0.267 |  |  |  |  |  |
| SW 900 | 1.06 | 0.762 | 0.931 | 0.62 | 0.547 |  |  |  |  |  | 0.637 | 0.627 | 0.543 | 0.206 | 0.153 | 0.588 | 0.489 | 0.671 | 0.46 | 0.519 |
| SW 1573 | 0.669 | 0.606 | 0.346 | 0.144 | 0.152 | 1.03 | 1.09 | 1.14 | 0.308 | 0.0835 | 0.413 | 0.454 | 0.53 | 0.134 | 0.136 |  |  |  |  |  |
| UMC-11 | 0.669 | 0.674 | 0.466 | 0.643 | 0.393 | 0.813 | 0.846 | 0.837 | 0.375 | 0.149 | 0.443 | 0.529 | 0.468 | 0.372 | 0.278 |  |  |  |  |  |
